What was measured:
NIH3T3 background cells = test: Cell proliferation, SRB assay, NIH3T3 background cells as control; assay type: cell-based; conditions: Mus musculus, NIH3T3, 72 h, read-out: inhibition rate (%) on proliferation of NIH3T3 background cells
Protocol: NIH3T3/TPR-Met cells in the logarithmic growth phase and NIH3T3 background cells were seeded in a 96-well microcuture plate at 90111_, per well and cultivated overnight, followed by addition of 104 of the compound at different concentrations. Three concentrations were set, and for each concentration, the test was carried out in triplicate wells. 72 h later, the culture medium was removed. The residue was fixed by precooled 10% TCA at 4° C. for 1 h, washed by distilled water for 5 times and dried at room temperature. After that, 4 mg/mL of sulforodamine B (SRB) in 1% glacial acetic acid was added to each well (1004 per well) for staining at room temperature for 15 min. The excess dye was removed by washed with 1% glacial acetic acid for 5 times and dried in air. At last, 150 μL of Tris-HCL solution (10 mM Tris, pH 10.0) was added to each well. OD values were measured on a multi-well spectrophotometer at […].

NIH3T3/TPR-Met cells = test: Cell proliferation mediated by c-Met, SRB assay, NIH3T3/TPR-Met cells; assay type: cell-based; conditions: Mus musculus, NIH3T3, 72 h, read-out: inhibition rate (%) on proliferation of NIH3T3/TPR-Met cells
Protocol: Three concentrations were set, and for each concentration, the test was carried out in triplicate wells. 72 h later, the culture medium was removed. The residue was fixed by precooled 10% TCA at 4° C. for 1 h, washed by distilled water for 5 times and dried at room temperature. […] The excess dye was removed by washed with 1% glacial acetic acid for 5 times and dried in air. At last, 150 μL of Tris-HCL solution (10 mM Tris, pH 10.0) was added to each well.

c-Met tyrosine kinase = c-Met tyrosine kinase (Homo sapiens, UniProt P08581); test: c-Met kinase activity on molecular level (ELISA, Poly(Glu,Tyr)4:1 substrate); assay type: biochemical; conditions: ATP 5 μM, 37° C., 1 h
Protocol: Poly(Glu, Tyr)4:1 as an enzyme substrate was diluted by potassium ion-free PBS (10 mM, sodium phosphate buffer, 150 mM NaCl, pH7.2-7.4) into a solution of 20 μg/ml. […] After the liquid in wells was removed, the plate was washed three time by T-PBS (PBS solution containing 0.1% Tween-20) at 200 μl/well, 5 min for each time. The ELISA plate was then dried in an oven at 37° C. for 1-2 h.
Each well was added with 50 μL of ATP solution diluted by reaction buffer (50 mM HEPES pH 7.4, 50 mM MgCl2, 0.5 mM MnCl2, 0.2 mM Na3VO4, 1 mM DTT) at a final concentration of 5 μM. Compound diluted by 1% DMSO into a suitable concentration was added at 10 μl/well and then c-Met tyrosine kinase protein diluted by 40 μl of reaction buffer was added. The plate was placed on a shaking table (100 rpm) at 37° C. and incubated for 1 h, and then washed three times by T-PBS. For each assay, triplicate wells without enzyme were used as blank control and wells having the corresponding DMSO concentration without compound were used as negative control. Primary antibody PY99 (p-Tyr (PY99), Cell Signaling Technology, 1:1000 diluted in 5 mg/mL BSA T-PBS) was added at 100 μl/well. The plate was then placed on a shaking table at 37° C. and incubated for 0.5 h, and washed by T-PBS. Secondary antibody horseradish peroxidase-conjugated goat anti-mouse IgG (1:2000 diluted in 5 mg/mL BSA T-PBS) was added at 100 μl/well. The plate was then placed on a shaking table at 37° C. for 0.5 h and washed three times by T-PBS. 2 mg/mL of OPD developer (diluted by a 0.1M citric acid-sodium citrate buffer (pH=5.4) containing 0.03% of H2O2) was added at 100 μl/well, and the plate was kept in dark at 25° C. for 1-10 min. OPD was ultrasonically dissolved and the developer solution was prepared just before use. 2 M of H2SO4 was added at 50 μl/well to stop the reaction. The plate was read using a wavelength regulated multi-well spectrophotometer (SPECTRA MAX 190) at 490 nm.
The inhibition rate was calculated according to the following equation:
Inhibition rate (%)=(1−(ODcompound−ODblank)/(ODnegative−ODblank))×100%
IC50 value was calculated through a four-parameter fit according to the inhibition curve.

Chain of c-Met tyrosine kinase (P08581 25-1390): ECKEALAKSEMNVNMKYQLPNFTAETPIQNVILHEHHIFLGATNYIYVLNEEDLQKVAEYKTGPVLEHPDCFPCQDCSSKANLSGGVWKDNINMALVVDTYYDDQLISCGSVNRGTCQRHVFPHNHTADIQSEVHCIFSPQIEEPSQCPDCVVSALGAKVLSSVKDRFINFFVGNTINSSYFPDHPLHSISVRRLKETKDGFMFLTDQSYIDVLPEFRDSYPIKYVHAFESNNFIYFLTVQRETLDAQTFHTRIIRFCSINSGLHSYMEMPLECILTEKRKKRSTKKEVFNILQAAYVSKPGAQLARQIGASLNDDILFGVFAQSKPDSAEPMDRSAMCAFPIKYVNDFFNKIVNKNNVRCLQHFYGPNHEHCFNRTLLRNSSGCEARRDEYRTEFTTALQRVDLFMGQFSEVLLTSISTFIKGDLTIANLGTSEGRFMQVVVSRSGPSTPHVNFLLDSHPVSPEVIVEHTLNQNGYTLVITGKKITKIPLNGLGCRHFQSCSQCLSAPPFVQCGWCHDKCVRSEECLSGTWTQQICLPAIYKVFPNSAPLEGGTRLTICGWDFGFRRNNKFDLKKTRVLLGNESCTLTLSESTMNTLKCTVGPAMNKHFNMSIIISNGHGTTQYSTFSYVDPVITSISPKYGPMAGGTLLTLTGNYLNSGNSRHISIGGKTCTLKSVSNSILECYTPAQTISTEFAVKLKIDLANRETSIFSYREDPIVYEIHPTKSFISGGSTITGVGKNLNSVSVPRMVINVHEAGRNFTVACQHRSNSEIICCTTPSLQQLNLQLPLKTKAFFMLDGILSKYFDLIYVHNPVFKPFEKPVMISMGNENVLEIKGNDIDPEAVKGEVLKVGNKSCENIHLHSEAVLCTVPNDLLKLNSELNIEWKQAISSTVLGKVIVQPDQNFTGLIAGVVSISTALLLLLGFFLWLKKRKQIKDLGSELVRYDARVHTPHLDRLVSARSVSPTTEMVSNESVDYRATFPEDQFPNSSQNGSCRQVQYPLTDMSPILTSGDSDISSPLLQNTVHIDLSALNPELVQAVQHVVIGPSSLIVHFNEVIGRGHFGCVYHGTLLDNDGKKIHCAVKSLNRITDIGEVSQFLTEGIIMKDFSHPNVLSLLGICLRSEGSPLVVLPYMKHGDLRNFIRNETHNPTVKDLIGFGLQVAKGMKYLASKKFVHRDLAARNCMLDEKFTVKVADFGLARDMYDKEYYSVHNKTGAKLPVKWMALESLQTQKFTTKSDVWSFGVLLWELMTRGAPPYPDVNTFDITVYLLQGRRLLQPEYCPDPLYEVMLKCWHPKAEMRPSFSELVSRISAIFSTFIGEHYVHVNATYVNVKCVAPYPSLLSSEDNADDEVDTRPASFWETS

Compound | IC50 (c-Met tyrosine kinase) [nM] | inhibition at 1 µM (NIH3T3 background cells) [%] | inhibition at 10 µM (NIH3T3 background cells) [%] | inhibition at 50 µM (NIH3T3 background cells) [%] | inhibition at 1 µM (NIH3T3/TPR-Met cells) [%] | inhibition at 10 µM (NIH3T3/TPR-Met cells) [%] | inhibition at 50 µM (NIH3T3/TPR-Met cells) [%]
c1ccc(COc2ccc(-c3cnc4nnc(Cc5ccc6ncccc6c5)n4n3)cc2)cc1 [Compound I-2, 3-(6-quinolylmethyl)-6-(4-benzyloxyphenyl)-[1,2,4]triazolo[4,3-b][1,2,4]triazine] |  | 16.2 | 28.4 | 33.1 |  |  | 
CCCn1cc(-c2cnc3nnc(Cc4c[nH]c5ccccc45)n3n2)cn1 [Compound I-9, 3-(3-indolylmethyl)-6-[(1-propyl)-4-pyrazolyl]-[1,2,4]triazolo[4,3-b][1,2,4]triazine] | 223 | 17.8 | 22.7 | 37.3 | 5 | 9.4 | 67.5
Brc1ccc(-c2cnc3nnc(Cc4ccc5ncccc5c4)n3n2)cc1 [Compound I-17, 3-(6-quinolylmethyl)-6-(4-bromophenyl)-[1,2, 4]triazolo[4,3-b][1,2,4]triazine] |  | 24.9 | 35.9 | 34.9 |  |  | 
c1ccc(COc2ccc(-c3cnc4nnc(Cc5c[nH]c6ccccc56)n4n3)cc2)cc1 [Compound I-18, 3-(3-indolylmethyl)-6-(4-bnzyloxyphenyl)-[1,2,4]triazolo[4,3-b][1,2,4]triazine] |  | 17.5 | 20.8 | 28.7 |  |  | 
CC(C)(C)OC(=O)N1CCC(n2cc(-c3cnc4nnc(C(F)(F)c5ccc6ncccc6c5)n4n3)cn2)CC1 [Compound I-20, 3-[(6-quinolyl)difluoromethyl]-6-[1-(1-tert-butoxycarbonyl-4-piperidyl)-4-pyrazolyl]-[1,2,4] triazolo[4,3-b][1,2,4]triazine] | 7.9 | 18.8 | 25.8 | 38.6 | 81.2 | 87.8 | 86.5
FC(F)(c1ccc2ncccc2c1)c1nnc2ncc(-c3cnn(C4CCNCC4)c3)nn12 [Compound I-21, 3-[(6-quinolyl)difluoromethyl]-6-[1-(4-piperidyl)-4-pyrazolyl]-[1,2,4]triazolo[4,3-b][1,2,4] triazine] | 81.6 | 12 | 25.5 | 28.4 | 6 | 76.8 | 85.1
FC(F)(c1ccc2ncccc2c1)c1nnc2ncc(-c3ccc(OCc4ccccc4)cc3)nn12 [Compound I-24, 3-[(6-quinolyl)difluoromethyl]-6-(4-benzyloxy-phenyl)-[1,2,4]triazolo[4,3-b][1,2,4]triazine] | 2.9 | 16.9 | 23.6 | 32.8 | 83.5 | 87.7 | 87.2
COc1cc2nccc(OCc3nnc4ncc(-c5ccc(F)cc5)nn34)c2cc1OC [II-14, 3-[(6,7-dimethoxy-4-quinolyl)oxymethyl]-6-(4-fluorophenyl)-[1,2,4]triazolo[4,3-b][1,2,4] triazine] | 3 |  | 0 |  |  | 75.6 | 
COc1cc2nccc(OCc3nnc4ncc(-c5ccc(Cl)cc5)nn34)c2cc1OC [II-15, 3-[(6,7-dimethoxy-4-quinolyl)oxymethyl]-6-(4-chlorophenyl)-[1,2,4]triazolo[4,3-b][1,2,4] triazine] | 182 |  | 0 |  |  | 22.6 | 
COc1cc2nccc(OCc3nnc4ncc(-c5ccccc5)nn34)c2cc1OC [II-17, 3-[(6,7-dimethoxy-4-quinolyl)oxymethyl]-6-phenyl-[1,2,4]triazolo[4,3-b][1,2,4]triazine] | 2.9 |  | 1.2 |  |  | 65.2 | 
COC(=O)c1ccc(-c2cnc3nnc(COc4ccnc5cc(OC)c(OC)cc45)n3n2)cc1 [II-18, 3-[(6,7-dimethoxy-4-quinolyl)oxymethyl]-6-(4-methoxyformylphenyl)-[1,2,4]triazolo[4,3-b] [1,2,4]triazine] | 3.7 | 29.6 | 37.3 | 63.5 | 5.6 | 22.9 | 82.6

Continued, in another order:

IC50 (c-Met tyrosine kinase) [nM] | Compound | inhibition at 1 µM (NIH3T3 background cells) [%] | inhibition at 10 µM (NIH3T3 background cells) [%] | inhibition at 50 µM (NIH3T3 background cells) [%] | inhibition at 1 µM (NIH3T3/TPR-Met cells) [%] | inhibition at 10 µM (NIH3T3/TPR-Met cells) [%] | inhibition at 50 µM (NIH3T3/TPR-Met cells) [%]
0.37 | COc1ccc2c(OCc3nnc4ncc(-c5ccc(Cl)cc5)nn34)ccnc2c1 [II-2, 3-[(7-methoxy-4-quinolyl)oxymethyl]-6-(4-chlorophenyl)-[1,2,4]triazolo[4,3-b][1,2,4]triazine] |  | 21 |  |  | 79 | 
0.23 | COc1ccc2c(OCc3nnc4ncc(-c5ccc(Br)cc5)nn34)ccnc2c1 [II-3, 3-[(7-methoxy-4-quinolyl)oxymethyl]-6-(4-bromophenyl)-[1,2,4]triazolo[4,3-b][1,2,4]triazine] |  | 33.8 |  |  | 77.3 | 
20.1 | COc1ccc2c(OCc3nnc4ncc(-c5cccs5)nn34)ccnc2c1 [II-4, 3-[(7-methoxy-4-quinolyl)oxymethyl]-6-(2-thienyl)-[1,2,4]triazolo[4,3-b][1,2,4]triazine] |  | 0 |  |  | 80.6 | 
0.78 | COC(=O)c1ccc(-c2cnc3nnc(COc4ccnc5cc(OC)ccc45)n3n2)cc1 [II-5, 3-[(7-methoxy-4-quinolyl)oxymethyl]-6-(4-methoxyformylphenyl)-[1,2,4]triazolo[4,3-b][1,2, 4]triazine] |  | 6.2 |  |  | 79.2 | 
0.56 | COc1ccc2c(OCc3nnc4ncc(-c5ccc([N+](=O)[O-])cc5)nn34)ccnc2c1 [II-6, 3-[(7-methoxy-4-quinolyl)oxymethyl]-6-(4-nitrophenyl)-[1,2,4]triazolo[4,3-b][1,2,4]triazine] | 46.2 | 53.3 | 50.6 | 78.6 | 82.4 | 82.3
32.4 | COc1ccc2c(OCc3nnc4ncc(-c5ccc(OCc6ccccc6)cc5)nn34)ccnc2c1 [II-8, 3-[(7-methoxy-4-quinolyl)oxymethyl]-6-(4-benzyloxyphenyl)-[1,2,4]triazolo[4,3-b][1,2,4] triazine] |  | 7.5 |  |  | 81.2 | 
0.2 | COc1cc2nccc(OCc3nnc4ncc(-c5ccc(Br)cc5)nn34)c2cc1OC [II-16, 3-[(6,7-dimethoxy-4-quinolyl)oxymethyl]-6-(4-bromophenyl)-[1,2,4]triazolo[4,3-b][1,2,4] triazine] |  | 56.2 |  |  | 87.9 | 

Reference: patent US20130324542A1, “[1,2,4]TRIAZOLO[4,3-B][1,2,4]TRIAZINE COMPOUNDS, PREPARATION METHOD AND USE THEREOF” (SHANGHAI INSTITUTE OF MATERIA MEDICA, CHINESE ACADEMY OF …, priority 2010, published 2013)
